Test system: Brattleboro rats
Assay: In vivo testing of liposomes: urine excretion after oral DDAVP
Settings: oral by gavage, DDAVP 10 µg/kg body weight
Protocol: Liposomes composed of STEL-PC and cholesterol in a ratio of 1 : 2.5 with DDVAP encapsulated as active agent were studied in the Brattleboro model.
Treatment with exogenous vasopression restores normal urinary function and exerts a temporal antidiuretic effect.
Brattleboro rats were hold singly in metabolic cages with free access to tap water. DDAVP was administered orally by gavage at a dose of 10 µg/kg body weight either as free compound or in various formulations. Urine excretion was measured over 24 h in 1 h intervals using a fraction collector.

1-desamino-8-D-arginine vasopressin [free DDAVP]
inhibition of urine excretion (duration): approximately 2 hours
